In patent US7858608B2, “Bile acid derivatives as FXR ligands for the prevention or treatment of FXR-mediated diseases or conditions” (Intercept Pharmaceuticals, Inc., priority 2006, dated 2010):
Read-outs that look alike come from different tables or passages of the source.

Key:
HepG2 cells = assay: Direct cell toxicity on exposure of HepG2 cells; format: cell-based, human; conditions: HepG2 cells exposed to the ligands
[1] = system: FXR regulated genes (SHP, CYP7α1, SREPB-1c, FAS, BSEP); conditions: human, 18 h, 10 μM
Source text: Human hepatocyte cell line HepG2 was used for these studies.
The effects of these ligands on FXR responsive genes was then investigated by quantitative reverse transcription PCR (qRT-PCR).

FXR [2] = molecular target: T1, FXR (Homo sapiens, UniProt Q96RI1); assay: Cell-free FRET assay, recruitment of the SRC1 peptide to FXR; format: biochemical; conditions: for Potency in activating FXR relative to CDCA (concentration for Scr-1 recruitment lower than CDCA): cell-free FRET assay, versus CDCA
T1 sequence (Q96RI1 1-486): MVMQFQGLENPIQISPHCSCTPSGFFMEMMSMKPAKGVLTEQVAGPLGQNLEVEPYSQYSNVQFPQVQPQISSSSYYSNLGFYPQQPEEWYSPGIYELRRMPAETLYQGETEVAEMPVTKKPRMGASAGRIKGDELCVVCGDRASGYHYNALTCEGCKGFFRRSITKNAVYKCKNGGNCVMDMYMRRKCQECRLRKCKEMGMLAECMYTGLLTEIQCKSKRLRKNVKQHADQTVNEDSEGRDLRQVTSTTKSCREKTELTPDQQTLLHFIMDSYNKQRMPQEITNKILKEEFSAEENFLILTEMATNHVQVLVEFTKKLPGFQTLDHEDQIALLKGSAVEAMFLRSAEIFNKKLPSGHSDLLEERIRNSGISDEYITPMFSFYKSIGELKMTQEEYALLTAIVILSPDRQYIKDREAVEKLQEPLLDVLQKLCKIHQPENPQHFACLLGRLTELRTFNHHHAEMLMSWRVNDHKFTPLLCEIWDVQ
Source text: This technology, a cell free assay, is described in […]., et al. J Med Chem. 2002 15; 45:3569-72).

[3] = system: FXR or other nuclear receptors; assay: Liver cells transfected with viral constructs carrying FXR or other nuclear receptors upstream of the luciferase gene; format: cell-based; conditions: mouse, rat, and human hepatocytes, luciferase reporter
FXR [4] = molecular target: T1, FXR; assay: Cell transfection (transactivation) assay in HepG2 cell line; format: cell-based; parameters: expressed in transfected cells; host or cells: HepG2; conditions: HepG2 cells, 1 μM
Description: It was also evaluated if compound (Ia) modulated FXR-regulated genes in a cellular assay using a human hepatocyte cell line (HepG2). […] A detailed description of these methods can be found in the following reference: Fiorucci S., et al. Gastroenterology 2004.

| Structure (SMILES) | Direct cell toxicity (HepG2 cells) | Induction of SHP expression [1] | Reduction of the expression of CYP7α1 mRNA [1] | Efficacy (relative recruitment of the SRC1 peptide to FXR where CDCA = 100%) (FXR [2]; FRET, human FXR, mean ± SE, n = 4) | EC50 (FXR [2]; FRET, human FXR, mean ± SE, n = 4, read-out: Cell-Free Assay EC50) | Potency in activating FXR relative to CDCA (concentration for Scr-1 recruitment lower than CDCA) (FXR [2]) | Potency in activating FXR relative to CDCA (concentration for Scr-1 recruitment lower than CDCA) (FXR [2]; listed as compound (Ia)) | EC50 (FXR [2]; concentrations ranging from 1 nM to 100 μM, read-out: EC50 as FXR ligand in cell free FRET assay (Table 2 summary)) | Selectivity for FXR over other nuclear receptors [3] | Induction of BSEP mRNA expression [1] | melting point | Transactivation of FXR (FXR [4]) | Transactivation of FXR (FXR [4]; listed as compound (Ia)) |
| --- | --- | --- | --- | --- | --- | --- | --- | --- | --- | --- | --- | --- | --- |
| CC[C@H]1[C@@H](O)[C@@H]2[C@H](CC[C@]3(C)[C@@H]([C@H](C)CCC(=O)O)CC[C@@H]23)[C@@]2(C)CC[C@@H](O)C[C@@H]12 [Compound 6-ECDCA, 6-ethyl-chenodeoxycholic acid] | no direct cell toxicity |  |  |  |  |  |  |  |  |  |  |  |  |
| C[C@H](CCC(=O)O)[C@H]1CC[C@H]2[C@@H]3[C@H](O)C[C@@H]4C[C@H](O)CC[C@]4(C)[C@H]3CC[C@]12C [CDCA, chenodeoxycholic acid, reference compound] | no direct cell toxicity | 2-3 fold | 60-70% |  |  |  |  |  |  |  |  |  |  |
| C[C@H](CCNC(=O)OC/C=C/c1ccccc1)[C@H]1CCC2C3C(CC[C@@]21C)[C@@]1(C)CC[C@@H](O)CC1C[C@H]3O (stereo partly drawn) [Compound (Ia), 23-N-Carbacinnamyloxy-3α,7α-dihydroxy-5β-norcholanylamine] | no direct cell toxicity |  |  | 66% | 592 nM | approximately 20 fold | ~20 fold | ~500 nM | selective FXR ligand | approximately 13 fold | 79 to 84 °C | transactivation | transactivates FXR |
